This passage reports IC50 results from US20250171462A1 (NICO Therapeutics, Inc., priority 2022, published 2025).

This assay deals with T1, full-length SARM1 (FL-SARM1) (Homo sapiens, UniProt Q6SZW1).
T1 sequence (Q6SZW1 28-724): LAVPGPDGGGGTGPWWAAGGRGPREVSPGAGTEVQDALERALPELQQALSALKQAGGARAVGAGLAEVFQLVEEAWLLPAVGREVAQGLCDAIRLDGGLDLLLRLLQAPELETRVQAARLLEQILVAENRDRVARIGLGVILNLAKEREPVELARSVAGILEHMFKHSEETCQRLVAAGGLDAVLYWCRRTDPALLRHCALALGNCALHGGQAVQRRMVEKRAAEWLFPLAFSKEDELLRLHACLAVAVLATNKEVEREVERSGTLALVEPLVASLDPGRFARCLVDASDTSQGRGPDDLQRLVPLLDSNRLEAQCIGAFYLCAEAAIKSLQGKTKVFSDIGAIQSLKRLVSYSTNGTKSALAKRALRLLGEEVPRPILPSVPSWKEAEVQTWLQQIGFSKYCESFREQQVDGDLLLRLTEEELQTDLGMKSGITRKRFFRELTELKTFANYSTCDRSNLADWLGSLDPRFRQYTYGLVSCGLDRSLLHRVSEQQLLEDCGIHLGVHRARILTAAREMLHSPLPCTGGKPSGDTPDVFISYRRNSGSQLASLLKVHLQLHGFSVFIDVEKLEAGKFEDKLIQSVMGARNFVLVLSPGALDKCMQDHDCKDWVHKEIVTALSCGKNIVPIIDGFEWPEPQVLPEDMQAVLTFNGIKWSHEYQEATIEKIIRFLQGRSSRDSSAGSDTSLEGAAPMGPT
As to the kind of experiment: FL-SARM1 cellular lysate assay (NAD/NADH-Glo detection of remaining NAD+, NMN-activated).

[1] abbreviates: Activity (μM) (IC50), 11 point curve.
[2] abbreviates: read-out: Activity (IC50 class), 11 point curve.
Setting [3] is: Activity (IC50 class), 11 point curve.

Read-outs that look alike come from different tables or passages of the source.

One may read the IC50 as the concentration needed to halve the response being measured. `Cc1ccc(NC(=O)N2[C@@H]3CC(C)C[C@H]2C3)cc1-c1ncccc1C` (mixture of isomers) [Example 31, 3-methyl-N-(4-methyl-3-(3-methylpyridin-2-yl)phenyl)-6-azabicyclo[3.1.1]heptane-6-carboxamide]: the IC50 reads like this: under setting [1], 0.8 µM; under setting [2], 0.0001 to 1 µM.

As for `Cc1ccc(NC(=O)N2CCCC3C2C3C(F)(F)F)cc1-c1ccccn1` (mixture of isomers) [Example 98, N-(4-methyl-3-pyridin-2-ylphenyl)-7-(trifluoromethyl)-2-azabicyclo[4.1.0]heptane-2-carboxamide], the IC50 is, setting by setting: under setting [3], over 10 µM; under setting [1], 20 µM.

Compound `Cc1ccc(NC(=O)C2CC(C(F)(F)F)C2)cc1-c1ccccn1` (mixture of isomers) [Example 130, N-(4-methyl-3-pyridin-2-ylphenyl)-3-(trifluoromethyl)cyclobutane-1-carboxamide] yielded a concentration for half-maximal inhibition (IC50) under setting [3] of 1 to 10 µM and an IC50 under setting [1] of 2.6 µM.

Turning to `Cc1ccc(NC(=O)C2CCC(C)CCN2c2ccccn2)cc1-c1ncccn1` (mixture of isomers) [Example 259, 5-methyl-N-(4-methyl-3-(pyrimidin-2-yl)phenyl)-1-(pyridin-2-yl)azepane-2-carboxamide], the IC50 reads like this: under setting [3], 1 to 10 µM; under setting [1], 5.8 µM.

As to `Cc1ccc(NC(=O)C2CC3CC3CN2c2ccccn2)cc1-c1ncc(F)cn1` (mixture of isomers) [Example 260, N-(3-(5-fluoropyrimidin-2-yl)-4-methylphenyl)-3-(pyridin-2-yl)-3-azabicyclo[4.1.0]heptane-4-carboxamide], the IC50 by setting is: under setting [3], 1 to 10 µM; under setting [1], 1.3 µM.

Take `Cc1ccc(NC(=O)C2C3CCC2(c2ccn(C)n2)C3)cc1-c1ncc(F)cn1` (mixture of isomers) [Example 317]: the IC50 runs as follows: under setting [3], 1 to 10 µM; under setting [1], 1 µM.

For `Cc1ccc(NC(=O)C2C3CCC2(c2ccccn2)C3)cc1-c1ncc(F)cn1` (mixture of isomers) [Example 318], the concentration for half-maximal inhibition (IC50) is 1 to 10 µM under setting [3] and 1.5 µM under setting [1].

Take `Cc1ccc(NC(=O)N2CC[C@@H]3[C@@H](C)[C@@H]3C2)cc1-c1ccccn1` (racemic) [Example 37, trans-7-methyl-N-(4-methyl-3-(pyridin-2-yl)phenyl)-3-azabicyclo[4.1.0]heptane-3-carboxamide]: the concentration for half-maximal inhibition (IC50) was 0.1 µM under setting [1] and 0.0001 to 1 µM under setting [2].

`COC(=O)[C@@H]1CC[C@@H]2C[C@H]1N2C(=O)Nc1ccc(C)c(-c2ccccn2)c1` (racemic) [Example 70, cis-methyl-6-((4-methyl-3-(pyridin-2-yl)phenyl)carbamoyl)-6-azabicyclo[3.1.1]heptane-2-carboxylate]: the IC50 reads like this: under setting [3], 1 to 10 µM; under setting [1], 1.9 µM.

With `Cc1nnc(C2CCCN2C(=O)Nc2ccc(C)c(-c3ccccn3)c2)o1` (racemic) [Example 87, 2-(5-methyl-1,3,4-oxadiazol-2-yl)-N-(4-methyl-3-pyridin-2-ylphenyl)pyrrolidine-1-carboxamide], the half-inhibitory concentration (IC50) runs as follows: under setting [3], over 10 µM; under setting [1], 17 µM.

For the compound `Cc1ccc(NC(=O)N2CCCC2c2ccn(C)n2)cc1-c1ccccn1` (racemic) [Example 88, 2-(1-methylpyrazol-3-yl)-N-(4-methyl-3-pyridin-2-ylphenyl)pyrrolidine-1-carboxamide], the 50% inhibitory concentration (IC50) reads like this: under setting [3], over 10 µM; under setting [1], 11 µM.

`Cc1ccc(NC(=O)N2CCCC2c2ccnn2C)cc1-c1ccccn1` (racemic) [Example 89, 2-(2-methylpyrazol-3-yl)-N-(4-methyl-3-pyridin-2-ylphenyl)pyrrolidine-1-carboxamide]: the IC50 reads like this: under setting [3], over 10 µM; under setting [1], 12 µM.

As to `Cc1ccc(NC(=O)N2CCCC2c2cnn(C)c2)cc1-c1ccccn1` (racemic) [Example 90, 2-(1-methylpyrazol-4-yl)-N-(4-methyl-3-pyridin-2-ylphenyl)pyrrolidine-1-carboxamide], the 50% inhibitory concentration (IC50) was over 10 µM under setting [3] and 14 µM under setting [1].

Turning to `Cc1ccc(NC(=O)N2CCCC2c2ncccn2)cc1-c1ccccn1` (racemic) [Example 91, N-(4-methyl-3-pyridin-2-ylphenyl)-2-pyrimidin-2-ylpyrrolidine-1-carboxamide], the IC50 is over 10 µM under setting [3] and 16 µM under setting [1].

For the compound `Cc1ccc(NC(=O)N2CCCC2C2CC2)cc1-c1ccccn1` (racemic) [Example 92, 2-cyclopropyl-N-(4-methyl-3-pyridin-2-ylphenyl)pyrrolidine-1-carboxamide], the 50% inhibitory concentration (IC50) by setting is: under setting [3], 1 to 10 µM; under setting [1], 2.3 µM.

For the compound `Cc1ccc(NC(=O)N2CCCC2c2nccn2C)cc1-c1ccccn1` (racemic) [Example 93, 2-(1-methylimidazol-2-yl)-N-(4-methyl-3-pyridin-2-ylphenyl)pyrrolidine-1-carboxamide], the IC50 is over 10 µM under setting [3] and 21 µM under setting [1].

On to `CC[C@H]1C[C@@H]1C(=O)Nc1ccc(C)c(-c2ccccn2)c1` (racemic) [Example 108, trans-2-ethyl-N-(4-methyl-3-pyridin-2-ylphenyl)cyclopropane-1-carboxamide], for which the IC50 by setting is: under setting [3], 1 to 10 µM; under setting [1], 1.1 µM.

As for `Cc1ccc(NC(=O)C2CCC2(F)F)cc1-c1ccccn1` (racemic) [Example 111, 2,2-difluoro-N-(4-methyl-3-pyridin-2-ylphenyl)cyclobutane-1-carboxamide], the IC50 is 1 to 10 µM under setting [3] and 2.8 µM under setting [1].

For `Cc1ccc(NC(=O)C2CCC23CC3)cc1-c1ccccn1` (racemic) [Example 113, N-(4-methyl-3-pyridin-2-ylphenyl)spiro[2.3]hexane-6-carboxamide], the IC50 reads like this: under setting [3], 1 to 10 µM; under setting [1], 2.5 µM.

In the case of `Cc1ccc(NC(=O)[C@@H]2C[C@H]3C[C@H]32)cc1-c1ccccn1` (racemic) [Example 116, trans-N-(4-methyl-3-pyridin-2-ylphenyl)bicyclo[2.1.0]pentane-2-carboxamide], the half-maximal inhibitory concentration (IC50) under setting [3] lay in the range of 1 to 10 µM and it took 7.4 µM to reach half-maximal inhibition under setting [1] (IC50).

With `Cc1ccc(NC(=O)C(C)(O)C2CCC2)cc1-c1ccccn1` (racemic) [Example 118, 2-cyclobutyl-2-hydroxy-N-(4-methyl-3-pyridin-2-ylphenyl)propanamide], the half-maximal inhibitory concentration (IC50) is, setting by setting: under setting [3], 1 to 10 µM; under setting [1], 6.1 µM.

As to `Cc1ccc(NC(=O)[C@@H]2C[C@@H]2C(F)(F)F)cc1-c1ccccn1` (racemic) [Example 124, cis-N-(4-methyl-3-pyridin-2-ylphenyl)-2-(trifluoromethyl)cyclopropane-1-carboxamide], the concentration for half-maximal inhibition (IC50) is 1 to 10 µM under setting [3] and 3.1 µM under setting [1].

Take `Cc1ccc(NC(=O)[C@H]2C[C@@H]2C(F)(F)F)cc1-c1ccccn1` (racemic) [Example 128, trans-N-(4-methyl-3-pyridin-2-ylphenyl)-2-(trifluoromethyl)cyclopropane-1-carboxamide]: the half-maximal inhibitory concentration (IC50) reads like this: under setting [3], 1 to 10 µM; under setting [1], 4.3 µM.

Regarding `Cc1ccc(NC(=O)[C@H]2[C@H](C)C2(F)F)cc1-c1ccccn1` (racemic) [Example 135, trans-2,2-difluoro-3-methyl-N-(4-methyl-3-pyridin-2-ylphenyl)cyclopropane-1-carboxamide], the IC50 reads like this: under setting [3], 1 to 10 µM; under setting [1], 3.3 µM.
